# Test results from patent publication US20200407717A1, “METHODS OF MODULATING ANTISENSE ACTIVITY” (Ionis Pharmaceuticals, Inc., priority 2018, published 2020).
# In the oligonucleotide strings, read from the 5' end, every base follows the letter of its sugar. An asterisk marks phosphorothioate; unmarked linkages are phosphodiester. Other units and linkages are bracketed, terminal groups are in braces. A string of capitals states the bases alone. e = 2'-O-(2-methoxyethyl) (MOE); {AF594} = Alexa Fluor 594 dye; k = constrained ethyl (cEt); {FITC} = fluorescein label; [5mC] = 5-methylcytosine; d = 2'-deoxy (DNA)
# Assays:
# EGFR [1] = target: T1, EGFR (Homo sapiens, UniProt P00533); experiment: Direct NanoBRET binding assay; parameters: made in house; host or cells: HEK293 cells; conditions: Direct BRET, AF594-labeled oligonucleotide 0.1-10,000 nM
# Experimental: (§1) NanoBRET (bioluminescence resonance energy transfer) binding assays were performed as described in Vickers and Crooke. PLOS One, 11(8), (2016). An EGFR NLuc construct was prepared by first amplifying human EGFR from the full length cDNA clone (Origene RC217223) with forward PCR primer 5′-[…]-3′ (SEQ ID NO: 1) and reverse PCR primer 5′-[…] (SEQ ID NO: 2). The amplified product was ligated into the NheI and XhoI sites of the NanoLuc expression vector pFC32K Nluc CMV-Neo (Promega). Protein was expressed in HEK293 cells and isolated using Protein G magnetic beads. For competitive BRET, the Alexafluor594-labeled modified oligonucleotide 766636 was diluted into water in opaque white 96-well plates at 10 nM and competed with 0.1-10,000 nM of unlabeled modified oligonucleotide. […] of 2× binding buffer containing […] (relative luminescence units) beads/well was added and plates were shaken for 10 minutes at room temperature. Nanoluciferase activity and BRET were measured in a Glowmax Discover plate reader and EC50 values, shown in the tables below, were calculated using GraphPad Prism. For direct BRET, Alexafluor594 modified nucleotides were diluted at 0.1-10,000 nM and experiments were performed as described above.
# EGF-EGFR signaling = experiment: EGFR signaling western blot (p-EGFR, p-ERK), A431 cells; type: cell-based; conditions: for EGFR signaling: 2 μM for 16 hours
# Experimental: In order to test the effects of a PS-ASO on EGFR signaling, A431 cells were incubated with compound no. 116847 or no PS-ASO compound for 16 hours. All cells were then treated with EGF prior to being subjected to the pulse-chase protocol described above. Cell lysates were run on a SDS-PAGE gel and analyzed by sequential western blot for phosphorylated EGFR (P-EGFR), total EGFR (T-EGFR), phosphorylated ERK (P-ERK), and total ERK (T-ERK) using the antibodies described above for EGFR, 4370 for P-ERK (Cell Signaling Technology), and 4695 for T-ERK (Cell Signaling Technology).
# 110080, 25690, 25699, 395251, or 395254 at 2 μM for 16 hours prior to carrying out the pulse-chase experiment described above.
# EGFR [2] = target: T1, EGFR; experiment: Pull-down assay in the presence of EGF; type: binding; parameters: endogenous in cells; host or cells: A431 cells
# Experimental: A431 cells were treated with 100 ng/mL, 200 ng/mL, or 400 ng/mL EGF and then lysed. The cell lysates were mixed with beads bound to compound no. 451104, as prepared as in Example 1. Proteins were eluted with compound no. 116847 and run on a SDS-PAGE followed by western blot, as in Example 1. The same membrane was sequentially blotted for total EGFR (T-EGFR), phosphorylated EGFR (P-EGFR, ab205827, Abcam), nucleolin (ab22758, Abcam), and TCP1β. […] 451104 to EGFR.
# In a similar experiment in which EGF was added after cell lysis, A431 cells were lysed and mixed with beads bound to compound no. 451104. Varying concentrations of EGF were added during the elution step with compound no. 116847.
# EGFR [3] = target: T1, EGFR; experiment: Competitive BRET in absence or presence of exogenous EGF; type: binding; parameters: made in house; host or cells: HEK293 cells
# Experimental: as §1
# The binding affinities for EGFR of PS-ASOs with various sugar modifications were measured with competitive BRET, as described in Example 1. 10 nM compound no. […]
# EGFR [4] = target: T1, EGFR; experiment: Competitive NanoBRET binding assay; parameters: made in house; host or cells: HEK293 cells; conditions: Competitive BRET vs 10 nM AF594-labeled 766636
# Experimental: as §1
# EGFR [5] = experiment: Pulse-chase EGFR synthesis and degradation, A431 cells; type: cell-based
# Experimental: In order to test the effects of a PS-ASO on EGFR synthesis and degradation, A431 cells were incubated with either compound no. 116847 or no PS-ASO compound for 16 hours. A pulse-chase protocol was then performed in which the cells were incubated for 20 minutes in cysteine and methionine free media followed by incubation with [^35S]-Met and [^35S]-Cys in order to analyze newly synthesized protein. Cell samples were collected in RIPA buffer after 50 minutes (FIG. 6A) or at the times indicated in the tables below, and cell lysates were immunoprecipitated with EGFR antibody or s100a10 antibody (610071, BD Bioscience). The resulting, labeled immunocomplexes were resolved by SDS-PAGE and visualized by autoradiography using phosphoimager. FIG. 6A and Table 13 show the levels of nascent EGFR protein and nascent s100a10, a control protein. […] 116847 relative to cells that were not incubated with an ASO.
# Purified recombinant EGF = target: T2, Purified recombinant EGF (Homo sapiens, UniProt P01133); experiment: Membrane binding assay, EGF; conditions: EGF 3 nM to 3 μM
# T2 construct: purchased ThermoFisher PHG0311L
# T2 sequence (P01133 971-1023 limits assumed): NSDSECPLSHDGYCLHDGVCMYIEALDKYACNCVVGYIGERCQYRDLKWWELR
# Experimental: (§2) A membrane binding assay was performed to test the binding affinities of modified oligonucleotides to EGF and EGFR. Purified recombinant EGF (PHG0311L, ThermoFisher) or EGFR protein (PV3872, ThermoFisher) were incubated with FITC-labeled phosphorothioate oligonucleotide, compound no. 256903 or FITC-labeled phosphate oligonucleotide, PO-ASO, in binding buffer (20 mM Tris-HCl, pH 7.5, 150 mM NaCl, 1 mM DTT, 10% glycerol) for 1 hr at 37° C. Each reaction contained purified EGF at 3 nM to 3 μM or recombinant EGFR at 5 nM to 150 nM. Samples were loaded onto a hyband ECL nitrocellulose membrane (GE Healthcare) and soaked in wash buffer (20 mM Tris-HcCl, pH 7.5, 250 mM NaCl). Protein-bound ASOs were transferred to the membrane by applying a vaccum in a 96-well Bio-Rad Bio-Dot apparatus. After washing, membranes were air-dried and scanned using a phoshoimager (GE Healthcare). Kds were calculated for compound no. 256903 using Prism. The results below represent an average of three replicate experiments. […] In contrast, compound no. 256903 bound to both EGF and EGFR, with a higher affinity for EGFR than for EGF.
# EGFR [6] = target: T1, EGFR; experiment: Membrane binding assay, EGFR; parameters: purchased ThermoFisher PV3872; conditions: EGFR 5 nM to 150 nM
# Experimental: as §2
substance,measurement,setting,value
"AF594-GksGksTks^mCdsGdsAds^mCds^mCdsGdsAdsAdsGdsTds^mCksAksTk (antisense GGTCGACCGAAGTCAT; 5'-AF594 label, cEt/MOE, 5-methylC, phosphorothioate, chemistry not fully specified) [compound 1024788]",EC50,EGFR [1],525 nM
AF594-GksGks^mCdsTdsAds^mCdsTdsAds^mCdsGds^mCds^mCdsGdsTks^mCksAk (antisense {AF594}-kG*kG*d[5mC]*dT*dA*d[5mC]*dT*dA*d[5mC]*dG*d[5mC]*d[5mC]*dG*kT*k[5mC]*kA) [compound 936533],EC50,EGFR [1],551 nM
AF594-Gks^mCksAksTdsGdsTdsTds^mCdsTds^mCddsAds^mCdsAdsTksTksAk (antisense {AF594}-kG*k[5mC]*kA*dT*dG*dT*dT*d[5mC]*dT*d[5mC]*dA*d[5mC]*dA*kT*kT*kA) [compound 1055615],EC50,EGFR [1],746 nM
AF594-^mCes^mCesTesTes^mCes^mCds^mCdsTdsGdsAdsAdsGdsGdsTdsTds^mCes^mCesTes^mCes^mCe (antisense {AF594}-e[5mC]*e[5mC]*eT*eT*e[5mC]*d[5mC]*d[5mC]*dT*dG*dA*dA*dG*dG*dT*dT*e[5mC]*e[5mC]*eT*e[5mC]*e[5mC]) [compound 1024789],EC50,EGFR [1],202 nM
AesGesTes^mCesTesAdsGdsGdsGdsTds^mCdsAds^mCdsAdsAdsTes^mCesTesGesGe (antisense eA*eG*eT*e[5mC]*eT*dA*dG*dG*dG*dT*d[5mC]*dA*d[5mC]*dA*dA*eT*e[5mC]*eT*eG*eG) [compound 25699],EGFR signaling,EGF-EGFR signaling,not be impacted
Biotin-TEG-^mCesTesGes^mCesTesAdsGds^mCds^mCdsTds^mCds^ioUdsGdsGdsAdsTesTGesTesGesAe [compound 451104],competition by exogenous EGF for binding to EGFR,"EGFR [2]; A431 cells treated with 100, 200 or 400 ng/mL EGF, then lysed",did not compete
same,"recovery of EGFR, nucleolin, or TCP1β from the beads on direct addition of EGF",EGFR [2]; EGF added to cell lysates during elution,did not significantly alter
"CTGCTAGCCTCTGGATTTGA (sugars from the 5' end e5 d10 e5, all phosphorothioate, methylation of C not given here) [compound 116847, 5-10-5 2′-MOE gapmer, phosphorothioate]",Bret Ratio (% Max),"EGFR [3]; 0.01 nM, EGF added 0",15.0 % Max
same,Bret Ratio (% Max),"EGFR [3]; 0.01 nM, EGF added 100 ng/mL",13.3 % Max
same,Bret Ratio (% Max),"EGFR [3]; 0.03 nM, EGF added 0",15.4 % Max
same,Bret Ratio (% Max),"EGFR [3]; 0.03 nM, EGF added 100 ng/mL",12.4 % Max
same,Bret Ratio (% Max),"EGFR [3]; 0.1 nM, EGF added 0",16.2 % Max
same,Bret Ratio (% Max),"EGFR [3]; 0.1 nM, EGF added 100 ng/mL",13.2 % Max
same,Bret Ratio (% Max),"EGFR [3]; 0.30 nM, EGF added 0",19.6 % Max
same,Bret Ratio (% Max),"EGFR [3]; 0.30 nM, EGF added 100 ng/mL",15.1 % Max
same,Bret Ratio (% Max),"EGFR [3]; 1.0 nM, EGF added 0",26.1 % Max
same,Bret Ratio (% Max),"EGFR [3]; 1.0 nM, EGF added 100 ng/mL",18.0 % Max
same,Bret Ratio (% Max),"EGFR [3]; 3.0 nM, EGF added 0",32.6 % Max
same,Bret Ratio (% Max),"EGFR [3]; 3.0 nM, EGF added 100 ng/mL",24.2 % Max
same,Bret Ratio (% Max),"EGFR [3]; 10.0 nM, EGF added 0",41.8 % Max
same,Bret Ratio (% Max),"EGFR [3]; 10.0 nM, EGF added 100 ng/mL",30.7 % Max
same,Bret Ratio (% Max),"EGFR [3]; 30.0 nM, EGF added 0",52.8 % Max
same,Bret Ratio (% Max),"EGFR [3]; 30.0 nM, EGF added 100 ng/mL",39.7 % Max
same,Bret Ratio (% Max),"EGFR [3]; 100 nM, EGF added 0",64.1 % Max
same,Bret Ratio (% Max),"EGFR [3]; 100 nM, EGF added 100 ng/mL",54.7 % Max
same,Bret Ratio (% Max),"EGFR [3]; 300 nM, EGF added 0",70.8 % Max
same,Bret Ratio (% Max),"EGFR [3]; 300 nM, EGF added 100 ng/mL",63.8 % Max
same,Bret Ratio (% Max),"EGFR [3]; 1000 nM, EGF added 0",82.9 % Max
same,Bret Ratio (% Max),"EGFR [3]; 1000 nM, EGF added 100 ng/mL",77.4 % Max
same,Bret Ratio (% Max),"EGFR [3]; 3000 nM, EGF added 0",99.5 % Max
same,Bret Ratio (% Max),"EGFR [3]; 3000 nM, EGF added 100 ng/mL",94.2 % Max
same,EC50,EGFR [4]; Table 5,181 nM
same,EC50,EGFR [4]; Table 6,1660 nM
same,EGFR synthesis and degradation,"EGFR [5]; 16 hours incubation, relative to cells not incubated with an ASO",unchanged
same,Relative Abundance of EGFR (%),EGFR [5]; Time 0 hr,103%
same,Relative Abundance of EGFR (%),EGFR [5]; Time 4 hr,91%
same,Relative Abundance of EGFR (%),EGFR [5]; Time 16 hr,69%
same,Relative Abundance of EGFR (%),EGFR [5]; Time 24 hr,54%
same,EGF-EGFR signaling,"EGF-EGFR signaling; 16 hours incubation, then EGF",not affected
same,p-EGFR (%),EGF-EGFR signaling; Time 0.5 hr,89%
same,p-ERK (%),EGF-EGFR signaling; Time 0.5 hr,102%
same,p-EGFR (%),EGF-EGFR signaling; Time 1 hr,76%
same,p-ERK (%),EGF-EGFR signaling; Time 1 hr,94%
same,p-EGFR (%),EGF-EGFR signaling; Time 2 hr,85%
same,p-ERK (%),EGF-EGFR signaling; Time 2 hr,85%
same,p-EGFR (%),EGF-EGFR signaling; Time 4 hr,55%
same,p-ERK (%),EGF-EGFR signaling; Time 4 hr,87%
"FITC-^mCeoTeoGeo^mCeoTeoAdoGdo^mCds^mCdoTdo^mCdoTdoGdoGdoAdoTeoTeoTeoGeoAe (antisense {FITC}-e[5mC]eTeGe[5mC]eTdAdGd[5mC]*d[5mC]dTd[5mC]dTdGdGdAeTeTeTeGeA) [PO-ASO, FITC-labeled phosphate oligonucleotide]",interaction with EGF,Purified recombinant EGF,did not appreciably interact
same,interaction with EGFR,EGFR [6],did not appreciably interact
^mCesGesTes^mCesGesTds^mCdsGdsTds^mCdsAdsTds^mCds^mCdsTds^mCesGesTes^mCes^mCe (antisense e[5mC]*eG*eT*e[5mC]*eG*dT*d[5mC]*dG*dT*d[5mC]*dA*dT*d[5mC]*d[5mC]*dT*e[5mC]*eG*eT*e[5mC]*e[5mC]) [compound 110080],EGFR signaling,EGF-EGFR signaling,not be impacted
^mCes^mCesAesGesGes^mCdsTdsGdsGdsTdsTdsAdsTdsGdsAds^mCesTes^mCesAesGe (antisense e[5mC]*e[5mC]*eA*eG*eG*d[5mC]*dT*dG*dG*dT*dT*dA*dT*dG*dA*e[5mC]*eT*e[5mC]*eA*eG) [compound 395251],EGFR signaling,EGF-EGFR signaling,not be impacted
